Test results as given in ChEMBL document CHEMBL5465560, “Selectivity Literature for EUbOPEN Chemogenomic Library” (2024).

Experiments:
[1] = test system: eIF-2-alpha kinase GCN2 (Homo sapiens), Q9P2K8 [S808G]; assay: Selectivity interaction (KinomeScan (DiscoverX)) EUB0000092b EIF2AK4; conditions: at 10 µM
[2] = molecular target: Serine/threonine-protein kinase RIO2 (Homo sapiens) (UniProt Q9BVS4); assay: Selectivity interaction (KinomeScan (DiscoverX)) EUB0001079a RIOK2; conditions: at 1 µM
[3] = molecular target: RAF proto-oncogene serine/threonine-protein kinase (Homo sapiens) (UniProt P04049); assay: Selectivity interaction (Kinase panel (KiNativ target engagement assay in Jurkat cells)) EUB0001635a RAF1; format: cell-based; conditions: Selectivity number of off-targets 0.0, Selectivity number of targets 233.0, Source Knowledge https://www.sciencedirect.com/science/article/pii/S2451945619300674?via%3Dihub, at 1 µM
Sequence of RAF proto-oncogene serine/threonine-protein kinase (Homo sapiens) (P04049 whole entry): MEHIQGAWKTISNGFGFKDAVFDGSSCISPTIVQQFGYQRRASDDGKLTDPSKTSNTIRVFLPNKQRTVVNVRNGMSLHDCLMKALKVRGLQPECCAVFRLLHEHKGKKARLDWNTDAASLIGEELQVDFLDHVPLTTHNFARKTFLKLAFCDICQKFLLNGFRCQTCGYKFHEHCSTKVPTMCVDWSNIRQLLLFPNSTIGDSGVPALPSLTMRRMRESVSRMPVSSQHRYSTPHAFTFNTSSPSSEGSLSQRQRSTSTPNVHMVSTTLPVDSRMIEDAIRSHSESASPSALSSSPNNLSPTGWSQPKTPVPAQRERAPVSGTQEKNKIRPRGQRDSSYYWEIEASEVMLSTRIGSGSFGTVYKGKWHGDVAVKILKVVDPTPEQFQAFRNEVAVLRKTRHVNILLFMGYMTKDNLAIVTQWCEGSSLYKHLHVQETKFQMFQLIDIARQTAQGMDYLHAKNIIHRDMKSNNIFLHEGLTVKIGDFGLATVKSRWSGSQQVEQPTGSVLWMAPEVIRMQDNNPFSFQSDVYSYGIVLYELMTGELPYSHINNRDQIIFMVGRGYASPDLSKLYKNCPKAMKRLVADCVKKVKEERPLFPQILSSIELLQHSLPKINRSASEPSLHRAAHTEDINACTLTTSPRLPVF

[4] = molecular target: Ephrin type-A receptor 2 (Homo sapiens) (UniProt P29317); assay: Selectivity interaction (Kinase panel (Z-LYTE Assay)) EUB0001632a EPHA2; conditions: at 10 µM
Sequence of Ephrin type-A receptor 2 (Homo sapiens) (P29317 whole entry, canonical isoform): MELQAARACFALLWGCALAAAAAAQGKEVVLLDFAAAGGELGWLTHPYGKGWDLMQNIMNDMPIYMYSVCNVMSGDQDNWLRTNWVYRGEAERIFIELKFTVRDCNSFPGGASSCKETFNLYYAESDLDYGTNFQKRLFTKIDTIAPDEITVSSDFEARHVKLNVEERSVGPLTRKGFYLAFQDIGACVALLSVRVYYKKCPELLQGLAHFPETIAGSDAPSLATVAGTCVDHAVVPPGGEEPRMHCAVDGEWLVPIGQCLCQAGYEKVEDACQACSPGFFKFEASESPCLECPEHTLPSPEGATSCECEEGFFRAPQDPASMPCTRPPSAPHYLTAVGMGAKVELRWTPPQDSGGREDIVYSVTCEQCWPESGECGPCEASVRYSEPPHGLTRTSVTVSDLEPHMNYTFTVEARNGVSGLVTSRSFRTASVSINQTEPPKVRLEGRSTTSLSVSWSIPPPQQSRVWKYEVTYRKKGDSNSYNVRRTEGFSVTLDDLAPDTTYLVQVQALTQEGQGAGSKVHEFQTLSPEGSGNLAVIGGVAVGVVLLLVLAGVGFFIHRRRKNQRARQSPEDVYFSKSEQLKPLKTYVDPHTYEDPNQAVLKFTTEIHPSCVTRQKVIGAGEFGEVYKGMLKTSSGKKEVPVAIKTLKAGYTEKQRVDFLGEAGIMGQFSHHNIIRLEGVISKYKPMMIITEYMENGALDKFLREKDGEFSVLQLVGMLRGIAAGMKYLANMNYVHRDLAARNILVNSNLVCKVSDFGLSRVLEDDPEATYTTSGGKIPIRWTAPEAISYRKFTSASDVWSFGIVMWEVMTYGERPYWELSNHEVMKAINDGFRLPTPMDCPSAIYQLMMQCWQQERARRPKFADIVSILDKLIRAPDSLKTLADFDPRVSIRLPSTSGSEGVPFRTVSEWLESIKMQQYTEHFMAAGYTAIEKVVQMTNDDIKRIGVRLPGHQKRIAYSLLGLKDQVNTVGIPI

[5] = molecular target: Casein kinase I isoform alpha (Homo sapiens, UniProt P48729); assay: Selectivity interaction (ActivX KiNativ screen (kinase selectivity in THP-1 cell lysates)) EUB0000639a CSNK1A1; format: subcellular; conditions: lysate
Sequence of Casein kinase I isoform alpha (P48729 2-337 limits assumed): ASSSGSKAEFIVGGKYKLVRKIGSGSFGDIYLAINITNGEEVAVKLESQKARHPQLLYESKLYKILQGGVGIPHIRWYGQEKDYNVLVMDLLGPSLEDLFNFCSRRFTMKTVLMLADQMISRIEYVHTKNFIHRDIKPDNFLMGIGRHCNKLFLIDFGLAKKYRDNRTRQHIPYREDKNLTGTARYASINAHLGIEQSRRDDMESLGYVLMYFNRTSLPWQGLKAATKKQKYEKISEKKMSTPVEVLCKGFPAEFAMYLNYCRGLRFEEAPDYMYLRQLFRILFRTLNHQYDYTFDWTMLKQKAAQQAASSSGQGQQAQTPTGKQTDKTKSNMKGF

[6] = molecular target: T1, Dual specificity tyrosine-phosphorylation-regulated kinase 4 (Homo sapiens) (UniProt Q9NR20); assay: Selectivity interaction (Kinase panel (Invitrogen)) EUB0000639a DYRK4; conditions: at 200 nM
T1 sequence (whole entry): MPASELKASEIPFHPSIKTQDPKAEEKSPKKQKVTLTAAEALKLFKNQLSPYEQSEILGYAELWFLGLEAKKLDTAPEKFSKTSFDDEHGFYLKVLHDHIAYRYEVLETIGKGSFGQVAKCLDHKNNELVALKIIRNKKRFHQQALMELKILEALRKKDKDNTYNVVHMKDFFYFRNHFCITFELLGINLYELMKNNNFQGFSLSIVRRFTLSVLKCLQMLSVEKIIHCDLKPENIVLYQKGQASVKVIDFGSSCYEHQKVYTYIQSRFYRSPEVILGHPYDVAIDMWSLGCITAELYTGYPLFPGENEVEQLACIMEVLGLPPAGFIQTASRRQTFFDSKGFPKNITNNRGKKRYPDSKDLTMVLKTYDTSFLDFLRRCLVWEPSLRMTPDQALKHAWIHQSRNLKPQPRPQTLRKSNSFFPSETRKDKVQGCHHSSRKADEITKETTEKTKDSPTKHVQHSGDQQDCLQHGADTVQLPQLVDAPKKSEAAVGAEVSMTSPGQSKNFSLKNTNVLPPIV

[7] = molecular target: SRSF protein kinase 1 (Homo sapiens, UniProt Q96SB4); assay: Selectivity interaction (ActivX KiNativ screen (kinase selectivity in THP-1 cell lysates)) EUB0000639a SRPK1; format: subcellular; conditions: lysate, at 1 µM
Sequence of SRSF protein kinase 1 (Q96SB4 whole entry): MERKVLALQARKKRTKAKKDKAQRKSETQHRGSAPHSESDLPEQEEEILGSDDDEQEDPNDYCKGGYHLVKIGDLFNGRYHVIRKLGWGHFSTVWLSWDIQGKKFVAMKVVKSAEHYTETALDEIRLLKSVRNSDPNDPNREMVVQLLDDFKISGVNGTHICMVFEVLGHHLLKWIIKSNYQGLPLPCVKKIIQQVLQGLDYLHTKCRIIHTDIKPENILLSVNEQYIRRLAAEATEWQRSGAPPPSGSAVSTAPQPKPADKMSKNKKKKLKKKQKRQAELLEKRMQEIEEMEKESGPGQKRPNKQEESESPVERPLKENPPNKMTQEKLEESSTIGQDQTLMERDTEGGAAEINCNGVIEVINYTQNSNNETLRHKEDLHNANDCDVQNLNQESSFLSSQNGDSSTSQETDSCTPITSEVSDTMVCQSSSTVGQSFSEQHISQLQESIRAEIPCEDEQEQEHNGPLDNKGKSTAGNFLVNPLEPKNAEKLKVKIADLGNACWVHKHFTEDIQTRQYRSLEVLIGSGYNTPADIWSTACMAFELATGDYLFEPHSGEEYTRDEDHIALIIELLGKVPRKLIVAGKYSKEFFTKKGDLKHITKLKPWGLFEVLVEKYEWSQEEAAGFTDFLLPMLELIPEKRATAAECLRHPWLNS

[8] = molecular target: 5'-AMP-activated protein kinase catalytic subunit alpha-2 (Homo sapiens) (UniProt P54646); assay: Selectivity interaction (Ambit KINOMEscan and KiNATiv profiling in Jurkat cells) EUB0000090b PRKAA2; format: cell-based; conditions: at 1 µM
Sequence of 5'-AMP-activated protein kinase catalytic subunit alpha-2 (Homo sapiens) (P54646 whole entry, looked up): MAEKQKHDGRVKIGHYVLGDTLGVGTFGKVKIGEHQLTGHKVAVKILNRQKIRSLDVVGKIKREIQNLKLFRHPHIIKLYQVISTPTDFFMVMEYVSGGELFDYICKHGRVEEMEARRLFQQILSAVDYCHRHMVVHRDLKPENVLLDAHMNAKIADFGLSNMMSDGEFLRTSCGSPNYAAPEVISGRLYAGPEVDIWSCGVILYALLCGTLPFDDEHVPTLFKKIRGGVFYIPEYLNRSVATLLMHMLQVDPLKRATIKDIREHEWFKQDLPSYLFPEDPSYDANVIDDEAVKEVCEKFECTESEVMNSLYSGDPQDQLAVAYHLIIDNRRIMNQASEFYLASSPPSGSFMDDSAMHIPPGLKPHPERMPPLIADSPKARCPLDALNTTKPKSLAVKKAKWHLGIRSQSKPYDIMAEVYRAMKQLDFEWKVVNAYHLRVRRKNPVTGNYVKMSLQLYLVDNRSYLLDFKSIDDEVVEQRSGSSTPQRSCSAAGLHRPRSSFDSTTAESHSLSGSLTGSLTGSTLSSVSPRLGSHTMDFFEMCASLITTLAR

[9] = molecular target: Calcium/calmodulin-dependent protein kinase type 1D (Homo sapiens) (UniProt Q8IU85); assay: Selectivity interaction (KinomeScan (DiscoverX)) EUB0001619a CAMK1D; conditions: at 1 µM
Sequence of Calcium/calmodulin-dependent protein kinase type 1D (Homo sapiens) (Q8IU85 whole entry, looked up): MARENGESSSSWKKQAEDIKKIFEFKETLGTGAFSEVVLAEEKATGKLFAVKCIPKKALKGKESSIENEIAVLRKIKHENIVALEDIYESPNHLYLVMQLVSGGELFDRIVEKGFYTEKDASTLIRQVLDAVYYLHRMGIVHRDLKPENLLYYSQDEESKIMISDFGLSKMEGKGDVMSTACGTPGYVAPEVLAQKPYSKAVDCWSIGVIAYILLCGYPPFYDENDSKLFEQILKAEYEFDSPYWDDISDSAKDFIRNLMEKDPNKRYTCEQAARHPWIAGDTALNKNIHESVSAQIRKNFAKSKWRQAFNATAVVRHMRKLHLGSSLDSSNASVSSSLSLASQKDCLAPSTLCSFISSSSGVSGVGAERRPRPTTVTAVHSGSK

[10] = molecular target: T2, cGMP-dependent protein kinase 2 (Homo sapiens) (UniProt Q13237); assay: Selectivity interaction (KinomeScan (DiscoverX)) EUB0001619a PRKG2; conditions: at 1 µM
T2 sequence (whole entry): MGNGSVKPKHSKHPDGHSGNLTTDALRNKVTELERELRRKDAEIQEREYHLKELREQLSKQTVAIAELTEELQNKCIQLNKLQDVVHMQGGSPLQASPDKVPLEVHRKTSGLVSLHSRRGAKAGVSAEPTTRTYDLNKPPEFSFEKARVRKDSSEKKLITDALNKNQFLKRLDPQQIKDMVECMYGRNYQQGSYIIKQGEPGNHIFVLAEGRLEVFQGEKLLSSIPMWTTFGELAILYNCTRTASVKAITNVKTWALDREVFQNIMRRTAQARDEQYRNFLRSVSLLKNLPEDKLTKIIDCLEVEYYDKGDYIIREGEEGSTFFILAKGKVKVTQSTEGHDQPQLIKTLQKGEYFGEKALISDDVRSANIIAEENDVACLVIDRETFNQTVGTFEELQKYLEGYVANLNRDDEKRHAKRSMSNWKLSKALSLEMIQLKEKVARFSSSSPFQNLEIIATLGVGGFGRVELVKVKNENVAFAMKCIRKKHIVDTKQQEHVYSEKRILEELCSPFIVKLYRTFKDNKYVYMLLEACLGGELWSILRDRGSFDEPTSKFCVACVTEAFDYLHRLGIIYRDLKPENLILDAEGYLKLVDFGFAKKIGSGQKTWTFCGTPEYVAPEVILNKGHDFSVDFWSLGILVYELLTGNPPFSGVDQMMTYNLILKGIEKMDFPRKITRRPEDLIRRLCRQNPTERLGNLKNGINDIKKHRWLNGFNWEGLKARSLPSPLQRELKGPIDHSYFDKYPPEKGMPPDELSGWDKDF

[11] = molecular target: Dual specificity protein kinase CLK2 (Homo sapiens, UniProt P49760); assay: Selectivity interaction (KinomeScan (DiscoverX)) EUB0001619a CLK2; conditions: at 1 µM
Sequence of Dual specificity protein kinase CLK2 (P49760 whole entry, looked up): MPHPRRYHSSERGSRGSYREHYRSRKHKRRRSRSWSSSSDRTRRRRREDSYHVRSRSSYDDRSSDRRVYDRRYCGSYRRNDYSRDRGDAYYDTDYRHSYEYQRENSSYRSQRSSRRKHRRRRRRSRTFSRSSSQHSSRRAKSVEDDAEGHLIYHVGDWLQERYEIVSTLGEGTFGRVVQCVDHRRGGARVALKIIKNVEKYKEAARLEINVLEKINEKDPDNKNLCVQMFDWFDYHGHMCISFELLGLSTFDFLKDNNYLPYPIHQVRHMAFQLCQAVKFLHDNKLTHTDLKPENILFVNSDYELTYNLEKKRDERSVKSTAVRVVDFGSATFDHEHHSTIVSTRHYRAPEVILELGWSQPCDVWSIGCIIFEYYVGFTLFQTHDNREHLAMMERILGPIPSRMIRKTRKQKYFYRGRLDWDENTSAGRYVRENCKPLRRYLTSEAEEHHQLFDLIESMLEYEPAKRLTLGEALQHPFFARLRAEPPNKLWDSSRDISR

[12] = molecular target: MAP kinase-activated protein kinase 2 (Homo sapiens, UniProt P49137); assay: Selectivity interaction (KinomeScan (DiscoverX)) EUB0001619a MAPKAPK2; conditions: at 1 µM
Sequence of MAP kinase-activated protein kinase 2 (P49137 whole entry, looked up): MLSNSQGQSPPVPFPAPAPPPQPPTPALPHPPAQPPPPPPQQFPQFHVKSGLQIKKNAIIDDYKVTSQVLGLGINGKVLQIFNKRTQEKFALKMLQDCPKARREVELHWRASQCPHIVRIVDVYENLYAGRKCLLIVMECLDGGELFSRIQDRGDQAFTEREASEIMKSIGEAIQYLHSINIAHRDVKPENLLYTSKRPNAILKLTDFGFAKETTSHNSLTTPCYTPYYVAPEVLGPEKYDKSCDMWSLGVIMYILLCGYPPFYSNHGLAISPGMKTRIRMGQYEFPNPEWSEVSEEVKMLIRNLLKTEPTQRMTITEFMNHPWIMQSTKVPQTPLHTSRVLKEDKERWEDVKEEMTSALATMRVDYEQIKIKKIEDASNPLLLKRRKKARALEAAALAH

Sequence of Serine/threonine-protein kinase RIO2 (Homo sapiens) (Q9BVS4 whole entry, looked up): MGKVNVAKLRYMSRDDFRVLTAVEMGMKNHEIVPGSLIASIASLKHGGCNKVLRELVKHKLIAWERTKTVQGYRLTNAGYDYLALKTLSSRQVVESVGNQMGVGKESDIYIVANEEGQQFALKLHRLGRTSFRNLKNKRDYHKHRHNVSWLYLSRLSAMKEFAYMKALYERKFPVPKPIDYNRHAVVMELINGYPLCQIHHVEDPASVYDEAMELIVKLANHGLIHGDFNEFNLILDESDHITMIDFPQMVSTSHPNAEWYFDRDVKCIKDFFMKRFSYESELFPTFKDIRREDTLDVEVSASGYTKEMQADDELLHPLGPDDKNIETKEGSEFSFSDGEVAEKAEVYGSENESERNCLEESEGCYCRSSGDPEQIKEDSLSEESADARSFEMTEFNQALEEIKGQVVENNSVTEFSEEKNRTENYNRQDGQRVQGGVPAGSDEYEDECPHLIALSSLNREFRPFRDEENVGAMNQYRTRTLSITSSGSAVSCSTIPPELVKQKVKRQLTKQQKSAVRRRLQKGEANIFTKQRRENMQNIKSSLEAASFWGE

Compound: CCC(=O)N1CCN(c2ccc(-n3c(=O)ccc4cnc5ccc(-c6cnc7ccccc7c6)cc5c43)cc2C(F)(F)F)CC1
- % of control [1]: 99%

Compound: Nc1cnc(N2CCc3cc(S(=O)(=O)Nc4c(F)cc(Cl)cc4F)cc(N4CCCC4=O)c32)nc1 [TP-020n]
- % of control [2]: 89%

Compound: C=CC(=O)Nc1ccc(C(=O)Nc2[nH]nc3c2CN(C(=O)N[C@H](CN(C)C)c2ccccc2)C3(C)C)cc1
- % of engagement [3]: -6.3%

Compound: Cn1cc(-n2cnc3c(NCc4nc5cc(Cl)c(Cl)cc5[nH]4)nc(N4CCOCC4)nc32)cn1
- % of control [4]: 14.4%

Compound: CC[C@@H]1[C@H](F)C(=O)N[C@@H]1COc1nccc2cc(C(N)=O)c(OC)cc12 [ZIMLOVISERTIB]
- % of inhibition ([5]; at 0.01 µM): -11.5%
- % of inhibition ([5]; at 0.04 µM): -1%
- % of inhibition ([5]; at 0.2 µM): -9.3%
- % of inhibition ([5]; at 1 µM): -0.4%
- % of inhibition ([5]; at 5 µM): 16.4%
- % of inhibition [6]: 5.52%
- % of inhibition [7]: 0.5%

Compound: CN(C)C/C=C/C(=O)Nc1ccc(C(=O)N2CCCC(Nc3ncc(Cl)c(-c4c[nH]c5ccccc45)n3)C2)cc1 (stereo unspecified)
- % of control [8]: 98%

Compound: N#Cc1cccc(-c2c[nH]c3ncnc(N4CCOCC4)c23)c1
- % of control [9]: 88%
- % of control [10]: 100%
- % of control [11]: 64%
- % of control [12]: 100%
